From US4259235A, “Tricyclic nitrogenous compounds having string plant growth regulating properties” (BASF Aktiengesellschaft, priority 1977, dated 1981)
Like-named read-outs stand apart in the source and are kept apart here.

Tests used:
Hordeum vulgare = test: Shoot growth, postemergence treatment in the greenhouse (table 26); type: in vivo
Description: (§1) Plastic flowerpots having a volume of 300 cm^3 were filled with a sandy loam and the test plants placed therein (either as seed, as vegetatively reproduced species, or as potted plants, e.g., vines). For preemergence treatment, the active ingredients were suspended or emulsified in water as vehicle and sprayed onto the surface of the soil immediately after sowing by means of finely distributing nozzles. The potted vines were treated by spraying them with the correspondingly diluted liquor. For postemergence treatment, the agents were, as stated above, sprayed in water onto the leaves of the test plants, some liquor also falling onto the soil. In some special cases, solid active ingredients were first dissolved in dimethylformamide and then applied in a total liquor amount of 400 liters of water per hectare. For the postemergence treatment, the plants were first grown to a height of from 3 to 10 cm before being treated. With grasses, the first growth was cut, and the new growth treated 2 to 3 days after cutting. The temperature requirements of the plants were taken into account by placing them in cooler or warmer sections of the greenhouse. The experiments were run for from 4 to 6 weeks, during which time the plants were tended and their reaction to the various treatments was assessed.
(§2) The application rates are given in kg/ha of active ingredient, regardless of the method of application and the amount of water used.
(§3) A 0 to 100 scale was used for the evaluation, 0 denoting normal emergence or no damage (or no inhibition), and 100 denoting non-emergence or complete destruction of the plants. A distinction should be made in the influence on growth between desired changes without any appreciable disadvantageous phytotoxic effects (e.g., purely growth-regulating effects) and those of a phytotoxic herbicical character.

Cynodon dactylon = test: as above; type: in vivo; conditions: from seed
Description: as §1, §2, §3

Poa pratensis [1] = test: as above; type: in vivo
Description: as §1, §2, §3

Galium apar. = test: Herbicidal action, pre- and postemergence application in the greenhouse; type: in vivo, Galium aparine; conditions: post-emergence, read-out: % damage
Description: as §1, §2, §3

Ipom. spp. = test: as above; type: in vivo, Ipomoea spp.; conditions: Ipomoea, post-emergence; 3.0 kg/ha POST; read-out: % damage
Description: as §1, §2, §3

Mentha piper. = test: as above; type: in vivo; conditions: post-emergence; 3.0 kg/ha POST; read-out: % damage
Description: as §1, §2, §3

Lolium mult. = test: as above; type: in vivo; conditions: Lolium, post-emergence, read-out: % damage
Description: as §1, §2, §3

Sinapis alba = test: as above; type: in vivo; conditions: post-emergence, 3.0 kg/ha PRE, read-out: % damage
Description: as §1, §2, §3

Cynodon dact. (seed) = test: as above; type: in vivo, Cynodon dactylon; conditions: appln. rate 2 kg/ha, POST line
Description: as §1, §2, §3

Hordeum vulg. = test: Shoot inhibition, pre- and postemergence treatment (table 28); type: in vivo, Hordeum vulgare; conditions: post-emergence
Description: as §1, §2, §3

Cynodon dactyl. = test: as above; type: in vivo, Cynodon dactylon; conditions: post-emergence, read-out: % shoot inhibition
Description: as §1, §2, §3

Medicago sativa = test: Inhibition of shoot growth by growth regulators, pre- and postemergence (table 27); type: in vivo; conditions: post-emergence, read-out: shoot growth inhibition (%)
Description: as §1, §2, §3

Euphorbia geniculata [2] = test: as above; type: in vivo; conditions: Euphorbia heterophylla, post-emergence, read-out: shoot growth inhibition (%)
Description: as §1, §2, §3

Glycine max = test: Shoot inhibition, pre- and postemergence treatment (table 28); type: in vivo; conditions: post-emergence, read-out: % shoot inhibition
Description: as §1, §2, §3

Poa prat. = test: as above; type: in vivo; conditions: Poa pratensis, post-emergence, read-out: % shoot inhibition
Description: as §1, §2, §3

Tritic. aestiv. = test: as above; type: in vivo; conditions: post-emergence
Description: as §1, §2, §3

Euphorbia geniculata [3] = test: Shoot growth, postemergence treatment in the greenhouse (table 26); type: in vivo
Description: as §1, §2, §3

Poa pratensis [4] = test: Growth inhibition in lawns, preemergence treatment in the greenhouse; type: in vivo; conditions: Poa pratensis, pre-emergence, read-out: % growth inhibition after emergence
Description: as §1, §2, §3

Euphorbia genic. = test: Shoot inhibition, pre- and postemergence treatment (table 28); type: in vivo, Euphorbia geniculata; conditions: post-emergence, read-out: % shoot inhibition
Description: as §1, §2, §3

Arachys hypog. = test: as above; type: in vivo, Arachys hypogaea; conditions: post-emergence, read-out: % shoot inhibition
Description: as §1, §2, §3

Oryza sativa = test: Shoot growth, postemergence treatment in the greenhouse (table 25); type: in vivo
Description: as §1, §2, §3

Arachys hypogaea = test: as above; type: in vivo
Description: as §1, §2, §3

Poa pratensis [5] = test: as above; type: in vivo
Description: as §1, §2, §3

[6] = read-out: % shoot inhibition, 1.0 kg/ha POST
[7] = read-out: % shoot inhibition, 1.0 kg/ha PRE
[8] = read-out: % shoot inhibition, 2.0 kg/ha POST
[9] = read-out: % shoot inhibition, 2.0 kg/ha PRE

In the case of `OC1C2CC(C3N=NC23)C1Nc1ccc(Cl)cc1` (stereo not drawn), the Shoot length (Hordeum vulgare; 0.5 kg/ha) is reported as 16 cm, the Shoot length (Hordeum vulgare; 1.0 kg/ha) is reported as 15 cm and the Shoot length (Hordeum vulgare; 2.0 kg/ha) is reported as 14 cm. For the same molecule, the Shoot length (Cynodon dactylon; 1.0 kg/ha) was 6 cm, the Shoot length (Cynodon dactylon; 2.0 kg/ha) was 6 cm and the Shoot length (Poa pratensis [1]; 1.0 kg/ha) was 13 cm. For the same molecule, the Shoot length (Poa pratensis [1]; 2.0 kg/ha) was 13 cm.

In the case of `Cc1ccc(NC2C(Br)C3CC2C2N=NC32)cc1` (stereo not drawn), the pest or weed control at 3000 g/ha (Galium apar.; 3.0 kg/ha POST) is reported as 80%, the pest or weed control at 3000 g/ha (Ipom. spp.) is reported as 100% and the pest or weed control at 3000 g/ha (Mentha piper.) is reported as 100%. The pest or weed control at 3000 g/ha (Lolium mult.; 3.0 kg/ha POST) was 100%, the pest or weed control at 3000 g/ha (Lolium mult.; 3.0 kg/ha PRE) was 95% and the pest or weed control at 3000 g/ha (Sinapis alba) was 100%. For the same molecule, the “% damage” value (Cynodon dact. (seed)) was 100%.

`CC(=O)OC1C2CC(C3N=NC23)C1Nc1ccc(Br)cc1` (stereo not drawn) gave a pest or weed control at 3000 g/ha (Galium apar.) of 65%, a pest or weed control at 3000 g/ha (Ipom. spp.) of 85% and a pest or weed control at 3000 g/ha (Mentha piper.) of 95%. For the same molecule, the pest or weed control at 3000 g/ha (Lolium mult.; 3.0 kg/ha POST) was 100%, the pest or weed control at 3000 g/ha (Lolium mult.; 3.0 kg/ha PRE) was 80% and the pest or weed control at 3000 g/ha (Sinapis alba) was 100%.

`FC(F)(F)c1cccc(NC2C(Br)C3CC2C2N=NC32)c1` (stereo not drawn) showed a pest or weed control at 3000 g/ha (Galium apar.; 3.0 kg/ha POST) of 90%, a pest or weed control at 3000 g/ha (Ipom. spp.) of 100% and a pest or weed control at 3000 g/ha (Mentha piper.) of 95%. The pest or weed control at 3000 g/ha (Lolium mult.; 3.0 kg/ha POST) was 100%, the pest or weed control at 3000 g/ha (Lolium mult.; 3.0 kg/ha PRE) was 100% and the pest or weed control at 3000 g/ha (Sinapis alba) was 95%.

`C[N+](C)(C)CCCl` [[ClCH2CH2N(C⊕H3)3]⊖ Cl, reference compound] was tested, and the inhibition at 1000 g/ha (Hordeum vulg.; [6]) was 10%, the inhibition at 1000 g/ha (Hordeum vulg.; [7]) was 20% and the inhibition at 2000 g/ha (Hordeum vulg.; [8]) was 10%. The inhibition at 2000 g/ha (Hordeum vulg.; [9]) was 20%, the inhibition at 1000 g/ha (Cynodon dactyl.) was 0% and the inhibition at 2000 g/ha (Cynodon dactyl.) was 0%. The inhibition at 500 g/ha (Medicago sativa) was 0%, the inhibition at 1000 g/ha (Medicago sativa) was 0% and the inhibition at 2000 g/ha (Medicago sativa) was 0%. The inhibition at 4000 g/ha (Medicago sativa) was 0%, the inhibition at 500 g/ha (Euphorbia geniculata [2]) was 0% and the inhibition at 1000 g/ha (Euphorbia geniculata [2]) was 0%. The inhibition at 2000 g/ha (Euphorbia geniculata [2]) was 0%, the inhibition at 4000 g/ha (Euphorbia geniculata [2]) was 10% and the inhibition at 1000 g/ha (Glycine max) was 0%. It also gave an inhibition at 2000 g/ha (Glycine max) of 0%, an inhibition at 1000 g/ha (Poa prat.) of 0% and an inhibition at 2000 g/ha (Poa prat.) of 0%. For the same molecule, the inhibition at 1000 g/ha (Tritic. aestiv.; [6]) was 30%, the inhibition at 1000 g/ha (Tritic. aestiv.; [7]) was 20% and the inhibition at 2000 g/ha (Tritic. aestiv.; [8]) was 30%. The inhibition at 2000 g/ha (Tritic. aestiv.; [9]) was 20%, the Shoot length (Hordeum vulgare; 0.5 kg/ha) was 14 cm and the Shoot length (Hordeum vulgare; 1.0 kg/ha) was 14 cm. The Shoot length (Hordeum vulgare; 2.0 kg/ha) was 14 cm, the Shoot length (Euphorbia geniculata [3]; 0.5 kg/ha) was 12.5 cm and the Shoot length (Euphorbia geniculata [3]; 1.0 kg/ha) was 13 cm. For the same molecule, the Shoot length (Euphorbia geniculata [3]; 2.0 kg/ha) was 13 cm, the Shoot length (Cynodon dactylon; 1.0 kg/ha) was 7 cm and the Shoot length (Cynodon dactylon; 2.0 kg/ha) was 7 cm. For the same molecule, the Shoot length (Poa pratensis [1]; 1.0 kg/ha) was 20 cm, the Shoot length (Poa pratensis [1]; 2.0 kg/ha) was 19 cm and the inhibition at 500 g/ha (Poa pratensis [4]; 0.5 kg/ha) was 0%. It also gave an inhibition at 1000 g/ha (Poa pratensis [4]; 1.0 kg/ha) of 10%, an inhibition at 2000 g/ha (Poa pratensis [4]; 2.0 kg/ha) of 10% and an inhibition at 4000 g/ha (Poa pratensis [4]; 4.0 kg/ha) of 10%. It also gave an inhibition at 1000 g/ha (Euphorbia genic.) of 0%, an inhibition at 2000 g/ha (Euphorbia genic.) of 0% and an inhibition at 1000 g/ha (Arachys hypog.) of 0%. It also gave an inhibition at 2000 g/ha (Arachys hypog.) of 0%.

`C[N+](C)(C)CCCl` [[ClCH2CH2N⊕(CH3)3]⊖, reference compound] gave a Shoot length (Oryza sativa; 1.0 kg/ha) of 20 cm, a Shoot length (Oryza sativa; 2.0 kg/ha) of 20 cm and a Shoot length (Oryza sativa; 4.0 kg/ha) of 20 cm. It also gave a Shoot length (Arachys hypogaea; 1.0 kg/ha) of 16 cm, a Shoot length (Arachys hypogaea; 2.0 kg/ha) of 16 cm and a Shoot length (Arachys hypogaea; 4.0 kg/ha) of 16 cm. It also gave a Shoot length (Poa pratensis [5]; 1.0 kg/ha) of 4 cm, a Shoot length (Poa pratensis [5]; 2.0 kg/ha) of 4 cm and a Shoot length (Poa pratensis [5]; 4.0 kg/ha) of 3 cm.
